These results are taken from patent US20010046994A1, “Hexahydrotriazine compounds and insecticides” (priority 1989, published 2001).

Where two headings read alike, the source gives them in different places.

Experiment [1] concerns green rice leafhopper which had acquired resistance to chemicals. The experiment in a line: Rice seedling dip test, mortality of resistant green rice leafhopper larvae (Test Example 1). It is filed as in vivo. The conditions noted are these: Nephotettix cincticeps, read-out: Mortality (%), 500 ppm. An excerpt: (§1) Five rice seedlings having a height of about 7 cm were dipped, for 10 seconds, into aqueous dilutions of wettable powder each containing a predetermined concentration of each sample compound, prepared in accordance with the procedure as described in Formulation Example 1. After air drying, the roots of the five rice seedlings were wrapped with sanitary cotton dampened with water, and placed in a glass cylinder having a diameter of 3 cm and a height of 20 cm. Ten second instar larvae of a green rice leafhopper which had acquired resistance to chemicals were released into each glass cylinder. The cylinder was allowed to stand in a room maintained at 26° C. The mortality of the larvae was examined 48 hours after treatment.

The test system of experiment [2] is brown rice planthopper which had acquired resistance to chemicals. The experiment in a line: Rice seedling dip test, mortality of resistant brown rice planthopper larvae (Test Example 2). Type of experiment: in vivo. The note with it: read-out: Mortality (%), 500 ppm.
Source text: as §1, with “brown” for “green”, “planthopper” for “leafhopper”

Setting [3] is: 500 ppm wettable powder dilution, rice seedlings dipped 10 seconds, second instar larvae, 48 hours after treatment, 26° C.

Broadly, the mortality is the share of the test organisms that died.

Regarding `CN1CN(C)C(=N[N+](=O)[O-])N(Cc2ccc(Cl)nc2)C1` [compound 5, 1-(2-chloro-5-pyridylmethyl)-3,5-dimethyl-2-nitroiminohexahydro-1,3,5-triazine], the mortality at 500 ppm in experiment [1] (setting [3]) and in experiment [2] (setting [3]) was 100% throughout.

On to `Cc1cc(OP(C)(C)=S)ccc1[N+](=O)[O-]` [Comparative Compound, reference compound], for which the mortality at 500 ppm in experiment [1] (48 h) is 70%; in experiment [2] (48 h) it was 65%.

Consider `CCN1CNC(=N[N+](=O)[O-])N(Cc2ccc(Cl)nc2)C1` [Compound No. 2, 1-(2-chloro-5-pyridylmethyl)-5-ethyl-2-nitroiminohexahydro-1,3,5-triazine], for which the mortality at 500 ppm in experiment [1] (setting [3]) and in experiment [2] (setting [3]) was 100% each time.

In the case of `CN1CNC(=N[N+](=O)[O-])N(Cc2ccc(Cl)nc2)C1` [compound 1, 1-(2-chloro-5-pyridylmethyl)-5-methyl-2-nitroiminohexahydro-1,3,5-triazine], the mortality at 500 ppm in experiment [1] (setting [3]) and in experiment [2] (setting [3]) was 100% each time.

On to `CN1CN(C)C(=N[N+](=O)[O-])N(Cc2cnc(Cl)s2)C1` [compound 6, 1-(2-chloro-5-thiazolylmethyl)-3,5-dimethyl-2-nitroiminohexahydro-1,3,5-triazine], for which the mortality at 500 ppm in experiment [1] (setting [3]) and in experiment [2] (setting [3]) was 100% throughout.
